Results: patent US20240287070A1, “FUSED HETEROCYCLIC DERIVATIVES” (Janssen Sciences Ireland Unlimited Company, priority 2021, published 2024)

Assays:
[1] = tested on: HBV (HepG2.117 cell line, inducibly HBV producing); test: Anti-HBV activity, intracellular HBV DNA by real-time PCR in HepG2.117 cell line; assay type: cell-based, hepatitis B virus; details: HepG2.117 cells, 3 days of treatment
Protocol: The anti HBV activity was measured using the HepG2.117 cell line, a stable, inducibly HBV producing cell line, which replicates HBV in the absence of doxycycline (Tet-off system). The HepG2 cell line is available from ATCCR under number HB-8065. Transfection of the HepG2 cell line can be as described in Sun and Nassal 2006 Journal of Hepatology 45 (2006) 636-645 “Stable HepG2- and Huh7-based human hepatoma cell lines for efficient regulated expression of infectious hepatitis B virus”.
For the antiviral assay, HBV replication was induced, followed by a treatment with serially diluted compound in 96-well plates. After 3 days of treatment, the antiviral activity was determined by quantification of intracellular HBV DNA using real-time PCR and an HBV specific primer set and probe.

[2] = Cytotoxicity, ATPlite Luminescence Assay; assay type: cell-based, human; details: human, HepG2 or HepG2.117 cells, 3-days incubation unless marked with *
Protocol: Cytotoxicity of the compounds was tested using HepG2 or HepG2.117 cells, incubated for 3 or 4 days in the presence of compounds. The viability of the cells was assessed using the PERKIN ELMER ATPlite Luminescence Assay System.”

[3] = Human liver microsome stability; assay type: in vitro ADME; details: 1 μM compound, NADPH 1 mM, 37° C., 0-60 min; for half-life at 1 μM: human, pooled human liver microsomes, pH 7.4, pooled human liver microsomes 0.5 mg/mL, read-out: HLM Metabolism t1/2; for HLM Metabolism t1/2: pooled human liver microsomes 0.5 mg/mL
Protocol: Human Liver Microsome Stability t½ (Min) of Compounds of Formula (I) […] All incubations are performed singularly for each compound. NADPH was added to initiate the reaction with the final concentration of 1 mM and the final incubation volume of 400 μL. At 6 time points (0, 5, 10, 20, 40 and 60 min) reactions were stopped by the removal of 50 μL of the incubation mixture into plates containing acetonitrile at a of 1:3 (v:v). The plates were centrifuged at 3000 rpm for 10 min at 4° C. to precipitate the protein. Following protein precipitation, the sample supernatants were combined in cassettes of up to 8 compounds. The internal standard was added (1:1 supernatant to internal standard solution) and samples were analyzed using standard LC-MS conditions. From a plot of ln peak area ratio (compound peak area/internal standard peak area) against time, the gradient of the line is determined. Subsequently, half-life is calculated using the equations below: Elimination rate constant (k)=(−gradient) […]

[4] = Hepatitis B virus, HepG2.117, 72 h

Compound	EC50 [1] [µM]	CC50 at 3 days [2] [µM]	half-life at 1 μM [3] [h]	HLM Metabolism t1/2 [3] [h]	EC50 [1, 4] [µM]
CC(c1cn(C2CC2)c(=O)cn1)N1C[C@@H](C)n2nc3c(c2C1=O)CN(C(=O)c1ccc(Cl)c(Cl)c1)[C@H](C)C3 (single isomer, unassigned) [Compound 56A, (3R,7R)-9-((R*)-1-(4-cyclopropyl-5-oxo-4,5-dihydropyrazin-2-yl)ethyl)-2-(3,4-dichlorobenzoyl)-3,7-dimethyl-1,2,3,4,8,9-hexahydropyrido[4′,3′:3,4]pyrazolo[1,5-a]pyrazin-10(7H)-one]	0.29	> 50	> 3	–	–
CC(c1ccc(S(C)(=O)=O)cc1)N1C[C@@H](C)n2nc3c(c2C1=O)CN(C(=O)c1ccc(Cl)c(Cl)c1)[C@H](C)C3 (single isomer, unassigned) [Compound 15A, (3R,7R)-2-(3,4-dichlorobenzoyl)-3,7-dimethyl-9-((R*)-1-(4-(methylsulfonyl)phenyl)ethyl)-1,2,3,4,8,9-hexahydropyrido[4′,3′:3,4]pyrazolo[1,5-a]pyrazin-10(7H)-one]	0.063	> 50	> 3	–	–
Cc1nnnn1-c1ccc(C(C)N2C[C@@H](C)n3nc4c(c3C2=O)CN(C(=O)c2ccc(Cl)c(Cl)c2)[C@H](C)C4)cn1 (single isomer, unassigned) [Compound 27A, (3R,7R)-2-(3,4-dichlorobenzoyl)-3,7-dimethyl-9-((R*)-1-(6-(5-methyl-1H-tetrazol-1-yl)pyridin-3-yl)ethyl)-1,2,3,4,8,9-hexahydropyrido[4′,3′:3,4]pyrazolo[1,5-a]pyrazin-10(7H)-one]	0.24	> 50	–	>3	–
CC(c1cnc(C(C)(C)O)nc1)N1C[C@@H](C)n2nc3c(c2C1=O)CN(C(=O)c1ccc(Cl)c(C(F)(F)F)c1)[C@H](C)C3 (single isomer, unassigned) [Compound 35A, (3R,7R)-2-(4-chloro-3-(trifluoromethyl)benzoyl)-9-((R*)-1-(2-(2-hydroxypropan-2-yl)pyrimidin-5-yl)ethyl)-3,7-dimethyl-1,2,3,4,8,9-hexahydropyrido[4′,3′:3,4]pyrazolo[1,5-a]pyrazin-10(7H)-one]	0.2	> 50	–	0.783	–
CN=[S@](C)(=O)c1ccc([C@H](C)N2C[C@@H](C)n3nc4c(c3C2=O)CN(C(=O)c2ccc(Cl)c(Cl)c2)[C@H](C)C4)cn1 (relative stereo) [Compound 29C, (3R,7R)-2-(3,4-dichlorobenzoyl)-9-((S*)-1-(6-((R*)—N,S-dimethylsulfonimidoyl)pyridin-3-yl)ethyl)-3,7-dimethyl-1,2,3,4,8,9-hexahydropyrido[4′,3′:3,4]pyrazolo[1,5-a]pyrazin-10(7H)-one]	–	> 50	1.43	–	0.051
CNS(=O)(=O)c1ccc(C(C)N2C[C@@H](C)n3nc4c(c3C2=O)CN(C(=O)c2ccc(Cl)c(Cl)c2)[C@H](C)C4)cc1 (single isomer, unassigned) [Compound 17A, 4-((R*)-1-((3R,7R)-2-(3,4-dichlorobenzoyl)-3,7-dimethyl-10-oxo-1,3,4,7,8,10-hexahydropyrido[4′,3′:3,4]pyrazolo[1,5-a]pyrazin-9(2H)-yl)ethyl)-N-methylbenzenesulfonamide]	0.077	> 50	2.9	–	–
CC(c1cnn(C)c(=O)c1)N1C[C@@H](C)n2nc3c(c2C1=O)CN(C(=O)c1ccc(Cl)c(C(F)(F)F)c1)[C@H](C)C3 (single isomer, unassigned) [Compound 52A, (3R,7R)-2-(4-chloro-3-(trifluoromethyl)benzoyl)-3,7-dimethyl-9-((R*)-1-(1-methyl-6-oxo-1,6-dihydropyridazin-4-yl)ethyl)-1,2,3,4,8,9-hexahydropyrido [4′,3′:3,4]pyrazolo[1,5-a]pyrazin-10(7H)-one]	0.12	> 50	–	1.48	–
CC(c1ccc(N2CCCS2(=O)=O)nc1)N1C[C@@H](C)n2nc3c(c2C1=O)CN(C(=O)c1ccc(Cl)c(C(F)(F)F)c1)[C@H](C)C3 (single isomer, unassigned) [Compound 28A, (3R,7R)-2-(4-chloro-3-(trifluoromethyl)benzoyl)-9-((R*)-1-(6-(1,1-dioxidoisothiazolidin-2-yl)pyridin-3-yl)ethyl)-3,7-dimethyl-1,2,3,4,8,9-hexahydropyrido[4′,3′: 3,4]pyrazolo[1,5-a]pyrazin-10(7H)-one]	–	> 50	–	0.835	0.012
CN=[S@](C)(=O)c1ccc([C@@H](C)N2C[C@@H](C)n3nc4c(c3C2=O)CN(C(=O)c2ccc(Cl)c(Cl)c2)[C@H](C)C4)cn1 (relative stereo) [Compound 29A, (3R,7R)-2-(3,4-dichlorobenzoyl)-9-((R*)-1-(6-((R*)—N,S-dimethylsulfonimidoyl)pyridin-3-yl)ethyl)-3,7-dimethyl-1,2,3,4,8,9-hexahydropyrido[4′,3′:3,4]pyrazolo[1,5-a]pyrazin-10(7H)-one]	–	> 50	1.7	–	0.74
CC(c1ccccn1)N1C[C@@H](C)n2nc3c(c2C1=O)CN(C(=O)c1ccc(Cl)c(Cl)c1)[C@H](C)C3 (single isomer, unassigned) [Compound 65A, (3R,7R)-2-(3,4-dichlorobenzoyl)-3,7-dimethyl-9-((R*)-1-(pyridin-2-yl)ethyl)-1,2,3,4,8,9-hexahydropyrido[4′,3′:3,4]pyrazolo[1,5-a]pyrazin-10(7H)-one]	–	> 50	2.53	–	0.034
CC(c1ccc(C(C)(C)O)nc1)N1C[C@@H](C)n2nc3c(c2C1=O)CN(C(=O)c1ccc(Cl)c(C(F)(F)F)n1)[C@H](C)C3 (single isomer, unassigned) [Compound 62A, (3R,7R)-2-(5-chloro-6-(trifluoromethyl)picolinoyl)-9-((R*)-1-(6-(2-hydroxypropan-2-yl)pyridin-3-yl)ethyl)-3,7-dimethyl-1,2,3,4,8,9-hexahydropyrido[4′,3′:3,4]pyrazolo[1,5-a]pyrazin-10(7H)-one]	0.61	> 50	> 3	–	–
C[C@@H]1Cc2nn3c(c2CN1C(=O)c1ccc(Cl)c(Cl)c1)C(=O)N([C@@H](C)c1ccc([S@@](C)(=N)=O)cc1)C[C@H]3C (relative stereo) [Compound 18D, (3R,7R)-2-(3,4-dichlorobenzoyl)-3,7-dimethyl-9-((S*)-1-(4-((S*)—S-methylsulfonimidoyl)phenyl)ethyl)-1,2,3,4,8,9-hexahydropyrido[4′,3′:3,4]pyrazolo[1,5-a]pyrazin-10(7H)-one]	–	> 50	> 3	–	0.024
CC(c1ccn(C(C)C)c(=O)c1)N1C[C@@H](C)n2nc3c(c2C1=O)CN(C(=O)c1ccc(Cl)c(C(F)(F)F)c1)[C@H](C)C3 (single isomer, unassigned) [Compound 47A, (3R,7R)-2-(4-chloro-3-(trifluoromethyl)benzoyl)-9-((R*)-1-(1-isopropyl-2-oxo-1,2-dihydropyridin-4-yl)ethyl)-3,7-dimethyl-1,2,3,4,8,9-hexahydropyrido[4′,3′:3,4]pyrazolo[1,5-a]pyrazin-10(7H)-one]	0.068	> 50	–	0.888	–
C[C@@H]1Cc2nn3c(c2CN1C(=O)c1ccc(Cl)c(Cl)c1)C(=O)N([C@H](C)c1ccc([S@@](C)(=N)=O)cc1)C[C@H]3C (relative stereo) [Compound 18B, (3R,7R)-2-(3,4-dichlorobenzoyl)-3,7-dimethyl-9-((R*)-1-(4-((S*)—S-methylsulfonimidoyl)phenyl)ethyl)-1,2,3,4,8,9-hexahydropyrido[4′,3′:3,4]pyrazolo[1,5-a]pyrazin-10(7H)-one]	–	> 50	> 3	–	0.031
CC(c1ccnc(OC(F)F)c1)N1C[C@@H](C)n2nc3c(c2C1=O)CN(C(=O)c1ccc(Cl)c(C(F)(F)F)c1)[C@H](C)C3 (single isomer, unassigned) [Compound 50A, (3R,7R)-2-(4-chloro-3-(trifluoromethyl)benzoyl)-9-((R*)-1-(2-(difluoromethoxy)pyridin-4-yl)ethyl)-3,7-dimethyl-1,2,3,4,8,9-hexahydropyrido[4′,3′:3,4]pyrazolo[1,5-a]pyrazin-10(7H)-one]	0.066	12.5	> 3	–	–
